PMC4032177 (Journal of medicinal chemistry, 2013)

How the values were obtained:
CDK11 = CDK11 (Homo sapiens, UniProt Q9BWU1); assay: DiscoverRx ScanMax kinome binding scan; conditions: read-out: CDK11 % inhibition (ScanMax)
ERK1 = ERK1 (Homo sapiens, UniProt P27361); assay: Kinase specificity profiling; format: binding
AKT1 = AKT1 (Homo sapiens, UniProt P31749); assay: Kinase specificity profiling; format: binding
DLK [1] = target: T1, DLK (Homo sapiens, UniProt Q12852); assay: DiscoverRx ScanMax kinome binding scan
T1 sequence (Q12852 1-859): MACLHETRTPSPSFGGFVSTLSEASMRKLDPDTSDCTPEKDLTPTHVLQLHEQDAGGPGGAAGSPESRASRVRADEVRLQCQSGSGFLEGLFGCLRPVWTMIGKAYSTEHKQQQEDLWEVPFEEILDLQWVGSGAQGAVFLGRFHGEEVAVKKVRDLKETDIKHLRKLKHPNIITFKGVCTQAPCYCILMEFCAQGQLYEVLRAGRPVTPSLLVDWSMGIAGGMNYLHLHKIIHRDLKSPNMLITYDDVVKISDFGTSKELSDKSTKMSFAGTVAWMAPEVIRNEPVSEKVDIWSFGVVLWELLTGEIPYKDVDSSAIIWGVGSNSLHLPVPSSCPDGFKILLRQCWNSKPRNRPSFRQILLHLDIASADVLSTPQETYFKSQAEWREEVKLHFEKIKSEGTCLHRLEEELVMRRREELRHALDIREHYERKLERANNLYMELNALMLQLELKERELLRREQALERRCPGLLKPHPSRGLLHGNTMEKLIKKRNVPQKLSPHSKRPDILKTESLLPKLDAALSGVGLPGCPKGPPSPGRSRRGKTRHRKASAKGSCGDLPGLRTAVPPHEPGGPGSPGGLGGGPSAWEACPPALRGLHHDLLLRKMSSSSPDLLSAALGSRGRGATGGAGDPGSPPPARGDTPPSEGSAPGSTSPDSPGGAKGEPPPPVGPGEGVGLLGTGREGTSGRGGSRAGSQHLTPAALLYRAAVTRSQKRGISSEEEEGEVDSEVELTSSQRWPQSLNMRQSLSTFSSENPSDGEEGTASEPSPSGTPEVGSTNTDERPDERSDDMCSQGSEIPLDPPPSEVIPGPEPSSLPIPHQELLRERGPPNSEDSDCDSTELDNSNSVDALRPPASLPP

DLK [2] = target: T1, DLK; assay: DLK kinase inhibition; format: biochemical
BRAF = BRAF (Homo sapiens, UniProt P15056); assay: Kinase specificity profiling; format: binding
Chain of BRAF (P15056 whole entry): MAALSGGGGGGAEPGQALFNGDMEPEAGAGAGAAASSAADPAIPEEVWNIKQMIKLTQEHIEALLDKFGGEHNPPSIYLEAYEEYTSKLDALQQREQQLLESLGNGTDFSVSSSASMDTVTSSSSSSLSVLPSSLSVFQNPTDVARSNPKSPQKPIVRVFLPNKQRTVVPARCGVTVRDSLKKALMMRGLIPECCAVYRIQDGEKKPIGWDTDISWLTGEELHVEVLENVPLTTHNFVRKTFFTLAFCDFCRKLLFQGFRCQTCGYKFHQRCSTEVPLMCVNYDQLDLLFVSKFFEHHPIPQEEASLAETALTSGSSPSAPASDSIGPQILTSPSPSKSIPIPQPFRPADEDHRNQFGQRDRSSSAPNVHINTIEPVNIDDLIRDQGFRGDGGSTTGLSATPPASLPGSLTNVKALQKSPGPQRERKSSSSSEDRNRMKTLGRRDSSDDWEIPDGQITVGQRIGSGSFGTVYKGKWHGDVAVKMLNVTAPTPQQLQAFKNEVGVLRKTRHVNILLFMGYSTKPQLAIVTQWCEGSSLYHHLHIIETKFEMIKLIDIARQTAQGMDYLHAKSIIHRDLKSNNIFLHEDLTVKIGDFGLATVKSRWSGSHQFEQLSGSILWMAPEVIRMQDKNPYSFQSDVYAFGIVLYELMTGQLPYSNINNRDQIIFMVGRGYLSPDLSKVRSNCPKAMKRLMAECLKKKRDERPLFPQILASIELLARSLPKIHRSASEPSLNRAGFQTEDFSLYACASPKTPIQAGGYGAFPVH

AKT2 = AKT2 (Homo sapiens, UniProt P31751); assay: Kinase specificity profiling; format: binding
Chain of AKT2 (P31751 whole entry): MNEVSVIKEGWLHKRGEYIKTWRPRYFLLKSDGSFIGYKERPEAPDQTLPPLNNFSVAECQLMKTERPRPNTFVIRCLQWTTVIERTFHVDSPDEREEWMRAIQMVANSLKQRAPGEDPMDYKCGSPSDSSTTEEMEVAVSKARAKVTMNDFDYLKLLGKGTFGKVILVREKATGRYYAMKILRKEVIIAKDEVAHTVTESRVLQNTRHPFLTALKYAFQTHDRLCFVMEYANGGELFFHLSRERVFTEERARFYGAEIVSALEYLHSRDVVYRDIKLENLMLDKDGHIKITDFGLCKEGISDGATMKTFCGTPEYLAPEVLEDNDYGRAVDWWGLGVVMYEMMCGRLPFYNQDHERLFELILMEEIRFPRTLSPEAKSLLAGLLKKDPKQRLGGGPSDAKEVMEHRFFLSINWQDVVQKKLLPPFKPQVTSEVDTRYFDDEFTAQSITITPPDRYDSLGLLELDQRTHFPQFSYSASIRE

[3] = system: phosphorylated JNK (pJNK) in brain; assay: Inhibition of JNK phosphorylation in HIV-Tat treated mice; format: in vivo, C57BL/6 mice; conditions: 10 mg/kg i.p. every twelve hours
MLK3 = MLK3 (Homo sapiens, UniProt Q16584); assay: Radiometric MLK3 kinase inhibition assay; format: biochemical
Chain of MLK3 (Q16584 whole entry): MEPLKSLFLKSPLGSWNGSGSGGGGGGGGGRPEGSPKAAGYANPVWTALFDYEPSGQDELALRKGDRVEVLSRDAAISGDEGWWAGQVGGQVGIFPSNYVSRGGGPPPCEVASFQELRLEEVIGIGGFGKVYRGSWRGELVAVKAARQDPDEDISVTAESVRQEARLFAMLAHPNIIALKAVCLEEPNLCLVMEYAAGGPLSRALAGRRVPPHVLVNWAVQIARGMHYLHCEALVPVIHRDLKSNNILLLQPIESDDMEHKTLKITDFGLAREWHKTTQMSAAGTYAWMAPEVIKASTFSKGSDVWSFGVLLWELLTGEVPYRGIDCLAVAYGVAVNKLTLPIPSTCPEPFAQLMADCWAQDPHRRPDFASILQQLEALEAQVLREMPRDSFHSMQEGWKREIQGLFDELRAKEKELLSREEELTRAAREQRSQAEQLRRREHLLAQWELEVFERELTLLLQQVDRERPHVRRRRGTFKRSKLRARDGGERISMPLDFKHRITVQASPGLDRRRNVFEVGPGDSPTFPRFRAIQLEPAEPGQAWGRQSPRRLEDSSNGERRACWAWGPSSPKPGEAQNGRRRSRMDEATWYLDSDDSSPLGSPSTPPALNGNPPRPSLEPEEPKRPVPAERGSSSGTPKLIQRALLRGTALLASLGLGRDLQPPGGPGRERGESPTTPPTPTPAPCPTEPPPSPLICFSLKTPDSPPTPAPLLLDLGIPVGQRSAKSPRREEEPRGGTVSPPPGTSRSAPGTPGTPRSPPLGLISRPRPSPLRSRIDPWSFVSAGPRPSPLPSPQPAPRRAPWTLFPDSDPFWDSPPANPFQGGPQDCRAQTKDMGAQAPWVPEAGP

EGFR = EGFR (Homo sapiens, UniProt P00533); assay: Kinase specificity profiling; format: binding
Chain of EGFR (P00533 25-1210): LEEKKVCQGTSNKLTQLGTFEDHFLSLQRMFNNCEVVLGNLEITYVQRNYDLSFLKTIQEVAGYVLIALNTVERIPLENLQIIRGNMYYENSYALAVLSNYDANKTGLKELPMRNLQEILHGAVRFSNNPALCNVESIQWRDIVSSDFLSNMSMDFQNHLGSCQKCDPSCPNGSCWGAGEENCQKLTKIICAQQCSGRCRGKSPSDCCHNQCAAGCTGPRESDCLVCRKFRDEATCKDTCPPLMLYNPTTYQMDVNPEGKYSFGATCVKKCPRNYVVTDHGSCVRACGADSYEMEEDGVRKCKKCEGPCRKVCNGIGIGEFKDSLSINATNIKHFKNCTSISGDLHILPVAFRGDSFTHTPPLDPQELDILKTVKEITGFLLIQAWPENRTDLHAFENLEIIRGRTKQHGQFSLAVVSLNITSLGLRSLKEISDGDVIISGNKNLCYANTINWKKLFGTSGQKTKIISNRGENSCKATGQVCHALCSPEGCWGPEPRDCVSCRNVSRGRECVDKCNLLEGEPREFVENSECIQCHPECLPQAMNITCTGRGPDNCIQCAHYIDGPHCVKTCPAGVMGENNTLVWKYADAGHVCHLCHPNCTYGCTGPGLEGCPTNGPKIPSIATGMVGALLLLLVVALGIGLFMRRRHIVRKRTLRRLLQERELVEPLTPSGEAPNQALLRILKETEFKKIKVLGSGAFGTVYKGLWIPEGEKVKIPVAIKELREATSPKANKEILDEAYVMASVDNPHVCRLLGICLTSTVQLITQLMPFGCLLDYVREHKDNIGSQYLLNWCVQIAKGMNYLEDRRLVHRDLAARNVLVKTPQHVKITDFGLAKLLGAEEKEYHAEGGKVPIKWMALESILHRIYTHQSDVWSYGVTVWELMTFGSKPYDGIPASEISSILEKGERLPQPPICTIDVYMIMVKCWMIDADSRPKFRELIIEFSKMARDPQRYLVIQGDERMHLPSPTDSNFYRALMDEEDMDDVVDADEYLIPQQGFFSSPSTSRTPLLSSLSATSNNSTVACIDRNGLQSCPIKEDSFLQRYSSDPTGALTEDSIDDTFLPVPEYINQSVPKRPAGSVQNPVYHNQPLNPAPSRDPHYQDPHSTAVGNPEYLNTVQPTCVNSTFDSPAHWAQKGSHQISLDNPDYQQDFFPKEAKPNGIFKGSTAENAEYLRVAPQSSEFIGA

AKT3 = AKT3 (Homo sapiens, UniProt Q9Y243); assay: Kinase specificity profiling; format: binding
ERK2 = ERK2 (Homo sapiens, UniProt P28482); assay: Kinase specificity profiling; format: binding
Chain of ERK2 (P28482 whole entry): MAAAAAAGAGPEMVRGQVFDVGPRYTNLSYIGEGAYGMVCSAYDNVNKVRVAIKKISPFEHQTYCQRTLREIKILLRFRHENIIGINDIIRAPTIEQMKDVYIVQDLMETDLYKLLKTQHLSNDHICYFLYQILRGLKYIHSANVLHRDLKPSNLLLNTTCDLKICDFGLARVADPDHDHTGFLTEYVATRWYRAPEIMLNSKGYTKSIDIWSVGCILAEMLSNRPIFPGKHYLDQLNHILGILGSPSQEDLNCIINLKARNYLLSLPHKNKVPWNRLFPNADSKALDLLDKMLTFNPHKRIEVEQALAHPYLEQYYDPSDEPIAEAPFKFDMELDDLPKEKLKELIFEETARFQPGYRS

LRRK2 = LRRK2 (Homo sapiens, UniProt Q5S007); assay: DiscoverRx ScanMax kinome binding scan; conditions: read-out: LRRK2 % inhibition of binding (ScanMax), 1 μM

Chain of CDK11 (Q9BWU1 whole entry): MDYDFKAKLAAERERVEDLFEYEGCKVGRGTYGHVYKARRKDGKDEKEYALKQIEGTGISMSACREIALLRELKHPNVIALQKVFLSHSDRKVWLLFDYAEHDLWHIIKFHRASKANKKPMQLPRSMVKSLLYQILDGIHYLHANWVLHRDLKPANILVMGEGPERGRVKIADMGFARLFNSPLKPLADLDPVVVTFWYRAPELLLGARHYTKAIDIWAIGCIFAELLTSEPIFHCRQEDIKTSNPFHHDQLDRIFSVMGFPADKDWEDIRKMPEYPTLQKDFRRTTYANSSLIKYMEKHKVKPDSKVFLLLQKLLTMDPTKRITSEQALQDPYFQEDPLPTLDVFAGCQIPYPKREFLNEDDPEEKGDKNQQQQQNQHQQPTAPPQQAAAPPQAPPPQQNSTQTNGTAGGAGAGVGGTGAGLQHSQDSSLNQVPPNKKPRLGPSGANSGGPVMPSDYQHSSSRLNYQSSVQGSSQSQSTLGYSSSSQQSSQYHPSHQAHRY
Chain of ERK1 (P27361 whole entry): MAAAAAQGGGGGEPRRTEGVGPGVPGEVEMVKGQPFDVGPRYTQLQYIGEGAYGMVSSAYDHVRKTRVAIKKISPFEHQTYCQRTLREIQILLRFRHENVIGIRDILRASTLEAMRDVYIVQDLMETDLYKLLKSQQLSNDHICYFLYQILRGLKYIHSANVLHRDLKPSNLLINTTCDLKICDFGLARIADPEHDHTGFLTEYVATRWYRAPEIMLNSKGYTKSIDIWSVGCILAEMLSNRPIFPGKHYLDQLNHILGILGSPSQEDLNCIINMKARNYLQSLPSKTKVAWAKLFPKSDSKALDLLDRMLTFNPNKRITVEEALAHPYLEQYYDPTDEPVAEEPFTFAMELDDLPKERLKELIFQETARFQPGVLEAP
Chain of AKT1 (P31749 whole entry): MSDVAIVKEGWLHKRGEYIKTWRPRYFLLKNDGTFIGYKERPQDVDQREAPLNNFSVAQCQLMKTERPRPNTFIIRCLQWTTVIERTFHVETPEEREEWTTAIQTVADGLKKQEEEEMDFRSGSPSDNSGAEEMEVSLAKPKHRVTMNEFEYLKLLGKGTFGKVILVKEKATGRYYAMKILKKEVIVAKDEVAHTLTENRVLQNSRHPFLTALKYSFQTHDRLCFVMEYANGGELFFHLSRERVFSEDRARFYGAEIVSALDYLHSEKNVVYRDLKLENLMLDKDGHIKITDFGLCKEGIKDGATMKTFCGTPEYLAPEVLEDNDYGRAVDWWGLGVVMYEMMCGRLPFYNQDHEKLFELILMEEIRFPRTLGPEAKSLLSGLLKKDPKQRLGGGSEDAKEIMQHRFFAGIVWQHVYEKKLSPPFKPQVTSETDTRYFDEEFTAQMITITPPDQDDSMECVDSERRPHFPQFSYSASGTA

SMILES: CN1CCN(Cc2ccc(-c3cnc4[nH]cc(-c5ccc6[nH]ccc6c5)c4c3)cc2)CC1 [Compound 1, 3-(1H-Indol-5-yl)-5-(4-((4-methylpiperazin-1-yl)methyl)phenyl)-1H-pyrrolo[2,3-b]pyridine]
- inhibition at 1 µM (CDK11): > 90%
- Activity against ERK1 (ERK1): essentially inactive
- Activity against AKT1 (AKT1): essentially inactive
- Kd (DLK [1]): 70 nM
- IC50 (DLK [2]): 150 nM
- Activity against BRAF (BRAF): essentially inactive
- Activity against AKT2 (AKT2): essentially inactive
- pJNK levels in saline-treated animals [3]: no effect
- Ki (MLK3): ~10 nM
- Activity against EGFR (EGFR): essentially inactive
- Activity against AKT3 (AKT3): essentially inactive
- Activity against ERK2 (ERK2): essentially inactive

SMILES: CCSCc1ccc2c(c1)c1c3c(c4c5cc(CSCC)ccc5n5c4c1n2[C@H]1C[C@](O)(C(=O)OC)[C@]5(C)O1)CNC3=O [Compound 2, (9S,10R,12R)-9,12-Epoxy-1H-diindolo[1,2,3-fg:3′,2′,1′-kl]pyrrolo[3,4-i][1,6]benzodiazocine-10-carboxylic acid, 5,16-bis[(ethylthio)methyl]-2,3,9,10,11,12-hexahydro-10-hydroxy-9-methyl-1-oxo methyl ester]
- inhibition at 1 µM (LRRK2): > 99%

SMILES: COc1cc(-c2cnc3[nH]c(=O)n(-c4ccc5[nH]ccc5c4)c3n2)cc(OC)c1OC [Compound 7, 1-(1H-Indol-5-yl)-6-(3,4,5-trimethoxyphenyl)-1H-imidazo[4,5-b]pyrazin-2(3H)-one]
- IC50 (MLK3): 40 to 120 nM
